Assay results taken from patent US6713251B2, “Method for detection of drug-induced mutations in the reverse transcriptase gene” (Innogenetics N.V., priority 1996, dated 2004).

Assays:
[1] = system: HIV-1; test: Follow-up of plasma HIV RNA copy number (viral load, HIV Monitor test) in treated patients; assay type: in vivo, human
Method: (§1) Plasma samples were taken from HIV type-1 infected patients and stored at −20° C. until use. Patients were treated with AZT, ddI, ddC, D4T, 3TC, or several combinations of these prodrugs. The European serum samples tested were randomly selected. For the US serum collection, only the first sample from a follow-up series was taken. Some of these US patients were treated, others were not treated.
For cDNA synthesis and PCR amplification, the RNA pellet was dissolved in 15 μl random primers (20 ng/μl, pdN6, Pharmacia), prepared in DEPC-treated or HPLC grade water. After denaturation at 70° C. for 10 minutes, 5 μl cDNA mix was added, composed of 4 μl 5×AMV-RT buffer (250 mM Tris.HCl pH 8.5, 100 mM KCl, 30 mM MgCl2, 25 mM DTT), 0.4 μL 25 mM dXTPs, 0.2 μl or 25U Ribonuclease Inhibitor (HPRI, Amersham), and 0.3 μl or 8U AMV-RT (Stratagene). CDNA synthesis occurred during the 90 minutes incubation at 42° C. The HIV RT gene was then amplified using the following reaction mixture. […] Nested round PCR products were analysed on agarose gel and only clearly visible amplification products were used in the LiPA procedure. Quantification of viral RNA was obtained with the HIV Monitor™test (Roche, Brussels, Belgium).
We selected follow-up samples from three patients and analyzed the viral genotype on the 48 LiPA probes. […]

[2] = system: CD4 cells; test: Follow-up of CD4 cell count in treated HIV-1 infected patients; assay type: in vivo, human
Method: as §1
We selected follow-up samples from three patients and analyzed the viral genotype on the 48 LiPA probes. FIG. 3 illustrates the applicability of genotypic resistance measurement in conjunction with the analysis of viral load and CD4 cell count.

| Compound | Viral load decrease ([1]; Patient 94013, 3TC monotherapy from week 2 onwards) [log units] | CD4 count increase ([2]; Patient 94013, 3TC monotherapy from week 2 onwards, highest level at week 10) [fold] | Effect on viral load ([1]; Patient 92021, ten weeks of AZT treatment (from week 10), values of week 16 and 19) | Change in CD4 count ([2]; Patient 92021, AZT monotherapy from week 10, peak at week 21) |
| --- | --- | --- | --- | --- |
| Nc1ccn([C@@H]2CS[C@H](CO)O2)c(=O)n1 [3TC, (−)-β-L-2′,3′-dideoxy-3′-thioCytidine] | 3 | ~2.5 | – | – |
| Cc1cn([C@H]2C[C@H](N=[N+]=[N-])[C@@H](CO)O2)c(=O)[nH]c1=O [AZT, 3′-azido-2′,3′-dideoxyThymidine] | – | – | did not result in a drop in viral load | initially increased |
